Assay [1] concerns HCT116-MTAP-KO. As to the kind of experiment: Cell killing in HCT116 isogenic pair (Cell Titer-Glo viability), MTAP knock-out cells. As to conditions: Homo sapiens, HCT-116, 144 h, 6 days incubation, 0-10 μM, * = more than 50% viability inhibition at tested concentration without a full curve. It counts as cell-based, human. The gist of the method: (§1)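 HCT116 MTAP-knockout or mock-knockout (MTAP wildtype) cells in RPMI 1640 with 10% FBS were seeded overnight, then exposed to test compound at 0–10 μM final for 6 days at 37° C. Viability was measured by CellTiter-Glo luminescence and IC50 was fitted.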
(In general: ATP-based viability assays read luminescence as a measure of living cells.)

Assay [2] relates to HCT116-mock-RNA-KO. As to the kind of experiment: Cell killing in HCT116 isogenic pair (Cell Titer-Glo viability), mock knock-out cells with MTAP wildtype genotype. It counts as cell-based, human. Particulars: Homo sapiens, HCT-116, 144 h, 6 days incubation, 0-10 μM. Put shortly: as §1

SMILES strings stand for the structures.

In general, IC50 refers to the concentration that inhibits the measured activity by half. A high value points to weaker potency in that assay. Regarding `CN(C(=O)c1cc2nc(N)c3c(c2[nH]1)COC3)[C@@H]1COCc2cc(I)ccc21` [Example 84, (S)-5-amino-N-(7-iodoisochroman-4-yl)-N-methyl-6,8-dihydro-1H-furo[3,4-d]pyrrolo[3,2-b]pyridine-2-carboxamide], the figures for the IC50 in assay [1] and in assay [2] were 10 nM and 2200 nM, respectively.
For `CN(C(=O)c1cc2nc(N)c3c(c2[nH]1)COC3)[C@@H]1COCc2nc(C(F)(F)F)ccc21` [Example 85, (S)-5-amino-N-methyl-N-(2-(trifluoromethyl)-5,8-dihydro-6H-pyrano[3,4-b]pyridin-5-yl)-6,8-dihydro-1H-furo[3,4-d]pyrrolo[3,2-b]pyridine-2-carboxamide] the same measures were 113 nM and over 10000 nM.
As for `CN(C(=O)c1cc2nc(N)c3c(c2[nH]1)COC3)[C@H]1COCc2nc(C(F)(F)F)ccc21` [Example 86, (R)-5-amino-N-methyl-N-(2-(trifluoromethyl)-5,8-dihydro-6H-pyrano[3,4-b]pyridin-5-yl)-6,8-dihydro-1H-furo[3,4-d]pyrrolo[3,2-b]pyridine-2-carboxamide], the IC50 was 1900 nM in assay [1] and over 10000 nM in assay [2].
Consider `CN(C(=O)c1cc2nc(N)c3c(c2[nH]1)COC3)[C@@H]1COCc2nc(C3CC3)ccc21` [Example 87, (S)-5-amino-N-(2-cyclopropyl-5,8-dihydro-6H-pyrano[3,4-b]pyridin-5-yl)-N-methyl-6,8-dihydro-1H-furo[3,4-d]pyrrolo[3,2-b]pyridine-2-carboxamide], for which the half-inhibitory concentration (IC50) in assay [1] is 67 nM; in assay [2], over 10000 nM.
`CN(C(=O)c1cc2nc(N)c3c(c2[nH]1)COC3)[C@H]1COCc2nc(C3CC3)ccc21` [Example 88, (R)-5-amino-N-(2-cyclopropyl-5,8-dihydro-6H-pyrano[3,4-b]pyridin-5-yl)-N-methyl-6,8-dihydro-1H-furo[3,4-d]pyrrolo[3,2-b]pyridine-2-carboxamide]: the IC50 in assay [1] was 1410 nM; in assay [2], over 10000 nM.
With `CCN(C(=O)c1cc2nc(N)c3c(c2[nH]1)COC3)[C@@H]1CO[C@H](C)c2cc(C(F)(F)F)ccc21` [Example 89, 5-amino-N-ethyl-N-((1R,4S)-1-methyl-7-(trifluoromethyl)isochroman-4-yl)-6,8-dihydro-1H-furo[3,4-d]pyrrolo[3,2-b]pyridine-2-carboxamide], the IC50 came out at 4.1 nM in assay [1] and 446 nM in assay [2].
In the case of `CC(=O)N1CC[C@@H](N(C)C(=O)c2cc3nc(N)c4c(c3[nH]2)COC4)c2ccc(C(F)(F)F)cc21` [Example 90, (R)—N-(1-acetyl-7-(trifluoromethyl)-1,2,3,4-tetrahydroquinolin-4-yl)-5-amino-N-methyl-6,8-dihydro-1H-furo[3,4-d]pyrrolo[3,2-b]pyridine-2-carboxamide], the half-inhibitory concentration (IC50) in assay [1] was 29 nM; in assay [2], 5450 nM.
For `CN(C(=O)c1cc2nc(N)c3c(c2[nH]1)COC3)[C@@H]1COC2(CC2)c2cc(C(F)(F)F)ccc21` [Example 91, (S)-5-amino-N-methyl-N-(7′-(trifluoromethyl)spiro[cyclopropane-1,1′-isochroman]-4′-yl)-6,8-dihydro-1H-furo[3,4-d]pyrrolo[3,2-b]pyridine-2-carboxamide] the same measures were 32 nM and 3880 nM.
For `CN(C(=O)c1[nH]c2c3c(c(N)nc2c1C#N)COC3)[C@@H]1COCc2cc(C(F)(F)F)ccc21` [Example 92, (S)-5-amino-3-cyano-N-methyl-N-(7-(trifluoromethyl)isochroman-4-yl)-6,8-dihydro-1H-furo[3,4-d]pyrrolo[3,2-b]pyridine-2-carboxamide], the IC50 in assay [1] stood at 49 nM; in assay [2] it was 2050 nM.
For `CC[C@@H]1OC[C@@H](N(C)C(=O)c2cc3nc(N)c4c(c3[nH]2)COC4)c2ccc(C(F)(F)F)cc21` [Example 93, 5-amino-N-((1S,4S)-1-ethyl-7-(trifluoromethyl)isochroman-4-yl)-N-methyl-6,8-dihydro-1H-furo[3,4-d]pyrrolo[3,2-b]pyridine-2-carboxamide] the same measures were 165 nM and over 10000 nM.
Take `CC[C@H]1OC[C@@H](N(C)C(=O)c2cc3nc(N)c4c(c3[nH]2)COC4)c2ccc(C(F)(F)F)cc21` [Example 94, 5-amino-N-((1R,4S)-1-ethyl-7-(trifluoromethyl)isochroman-4-yl)-N-methyl-6,8-dihydro-1H-furo[3,4-d]pyrrolo[3,2-b]pyridine-2-carboxamide]: the IC50 in assay [1] came to 3.8 nM; in assay [2], 578 nM.
Turning to `CN(C(=O)c1cc2nc(N)c3c(c2[nH]1)COC3)[C@@H]1COCc2cc(C3CC3)cc(F)c21` [Example 95, (S)-5-amino-N-(7-cyclopropyl-5-fluoroisochroman-4-yl)-N-methyl-6,8-dihydro-1H-furo[3,4-d]pyrrolo[3,2-b]pyridine-2-carboxamide], the IC50 in assay [1] came to 18 nM; in assay [2] it was 1780 nM.
With `CN(C(=O)c1cc2nc(N)c3c(c2[nH]1)COC3)[C@@H]1COCc2cc(Br)cc(F)c21` [Example 96, (S)-5-amino-N-(7-bromo-5-fluoroisochroman-4-yl)-N-methyl-6,8-dihydro-1H-furo[3,4-d]pyrrolo[3,2-b]pyridine-2-carboxamide], the IC50 stood at 7.2 nM in assay [1] and 1930 nM in assay [2].
As to `CN(C(=O)c1cc2nc(N)c3c(c2[nH]1)COC3)[C@@H]1COCc2cc(C#N)cc(F)c21` [Example 97, (S)-5-amino-N-(7-cyano-5-fluoroisochroman-4-yl)-N-methyl-6,8-dihydro-1H-furo[3,4-d]pyrrolo[3,2-b]pyridine-2-carboxamide], the 50% inhibitory concentration (IC50) in assay [1] was found to be 17 nM; in assay [2], 2890 nM.
For `CC(=O)N1Cc2cc(C(F)(F)F)ccc2[C@H](N(C)C(=O)c2cc3nc(N)c4c(c3[nH]2)COC4)C1` [Example 98, (S)—N-(2-acetyl-7-(trifluoromethyl)-1,2,3,4-tetrahydroisoquinolin-4-yl)-5-amino-N-methyl-6,8-dihydro-1H-furo[3,4-d]pyrrolo[3,2-b]pyridine-2-carboxamide] the same measures were 11 nM and 1860 nM.
`CC(=O)N1Cc2cc(C(F)(F)F)ccc2[C@@H](N(C)C(=O)c2cc3nc(N)c4c(c3[nH]2)COC4)C1` [Example 99, (R)—N-(2-acetyl-7-(trifluoromethyl)-1,2,3,4-tetrahydroisoquinolin-4-yl)-5-amino-N-methyl-6,8-dihydro-1H-furo[3,4-d]pyrrolo[3,2-b]pyridine-2-carboxamide]: the IC50 is 722 nM in assay [1] and over 10000 nM in assay [2].
For `CN(C(=O)c1cc2nc(N)c3c(c2[nH]1)COC3)[C@@H]1CN(C(=O)C2CC2)Cc2cc(C(F)(F)F)ccc21` [Example 100, (S)-5-amino-N-(2-(cyclopropanecarbonyl)-7-(trifluoromethyl)-1,2,3,4-tetrahydroisoquinolin-4-yl)-N-methyl-6,8-dihydro-1H-furo[3,4-d]pyrrolo[3,2-b]pyridine-2-carboxamide] the same measures were 1.4 nM and 136 nM.
With `CN(C(=O)c1cc2nc(N)c3c(c2[nH]1)COC3)[C@H]1CN(C(=O)C2CC2)Cc2cc(C(F)(F)F)ccc21` [Example 101, (R)-5-amino-N-(2-(cyclopropanecarbonyl)-7-(trifluoromethyl)-1,2,3,4-tetrahydroisoquinolin-4-yl)-N-methyl-6,8-dihydro-1H-furo[3,4-d]pyrrolo[3,2-b]pyridine-2-carboxamide], the IC50 in assay [1] came out at 339 nM; in assay [2] it was 2090 nM.
Regarding `CC(C)C(=O)N1Cc2cc(C(F)(F)F)ccc2[C@H](N(C)C(=O)c2cc3nc(N)c4c(c3[nH]2)COC4)C1` [Example 102, (S)-5-amino-N-(2-isobutyryl-7-(trifluoromethyl)-1,2,3,4-tetrahydroisoquinolin-4-yl)-N-methyl-6,8-dihydro-1H-furo[3,4-d]pyrrolo[3,2-b]pyridine-2-carboxamide], the concentration for half-maximal inhibition (IC50) in assay [1] was 1.1 nM; in assay [2], 77 nM.
In the case of `CC(C)C(=O)N1Cc2cc(C(F)(F)F)ccc2[C@@H](N(C)C(=O)c2cc3nc(N)c4c(c3[nH]2)COC4)C1` [Example 103, (R)-5-amino-N-(2-isobutyryl-7-(trifluoromethyl)-1,2,3,4-tetrahydroisoquinolin-4-yl)-N-methyl-6,8-dihydro-1H-furo[3,4-d]pyrrolo[3,2-b]pyridine-2-carboxamide], the results for the IC50 in assay [1] and in assay [2] were 272 nM and 2450 nM, respectively.
As to `CN(C(=O)c1cc2nc(N)c3c(c2[nH]1)COC3)[C@@H]1COCc2cc(-c3cccnc3)ccc21` [Example 104, (S)-5-amino-N-methyl-N-(7-(pyridin-3-yl)isochroman-4-yl)-6,8-dihydro-1H-furo[3,4-d]pyrrolo[3,2-b]pyridine-2-carboxamide], the figures for the IC50 in assay [1] and in assay [2] were 18 nM and 2730 nM, respectively.
Turning to `CCC(CC)N(Cc1c(F)cc(C2CC2)cc1F)C(=O)c1cc2nc(N)c3c(c2[nH]1)COC3` [Example 105, 5-amino-N-(4-cyclopropyl-2,6-difluorobenzyl)-N-(pentan-3-yl)-6,8-dihydro-1H-furo[3,4-d]pyrrolo[3,2-b]pyridine-2-carboxamide], the IC50 in assay [1] turned out to be 13 nM; in assay [2], 930 nM.
For `CC(C)N(Cc1ccc(C2CC2)cn1)C(=O)c1cc2nc(N)c3c(c2[nH]1)CO[C@@H]3C` [Example 106, (R)-5-amino-N-((5-cyclopropylpyridin-2-yl)methyl)-N-isopropyl-6-methyl-6,8-dihydro-1H-furo[3,4-d]pyrrolo[3,2-b]pyridine-2-carboxamide] the same measures were 11 nM and 2630 nM.
The matching figures for `CC[C@@H](C)N(Cc1ccc(C2CCC2)cn1)C(=O)c1cc2nc(N)c3c(c2[nH]1)COC3` [Example 107, (R)-5-amino-N-(sec-butyl)-N-((5-cyclobutylpyridin-2-yl)methyl)-6,8-dihydro-1H-furo[3,4-d]pyrrolo[3,2-b]pyridine-2-carboxamide]: 20 nM and 1090 nM.

(Values after patent US20240368177A1, “5-AMINO-6,8-DIHYDRO-1H-FURO[3,4-d]PYRROLO[3,2-b]PYRIDINE-2-CARBOXAMIDE DERIVATIVES AS MTA-COOPERATIVE INHIBITORS OF PRMT5” (BeiGene Switzerland GmbH, priority 2023, published 2024).)
